Data published in patent US4575487A, “Method for determination of transglucosidase” (Miles Laboratories, Inc., priority 1983, dated 1986).

Assays:
glucoamylase = glucoamylase (Aspergillus niger, UniProt P69328); assay: Effect of acarbose on glucoamylase activity (remaining activity with maltose); type: biochemical; settings: for Inhibition (%) glucoamylase: one unit of glucoamylase
Source text: (§1) A particularly effective, selective inhibitor is acarbose which is identified by J. Jap. Soc. […] The difference in the effect of acarbose on glucoamylase and transglucosidase has led to the development of a sensitive assay for transglucosidase in the presence of glucoamylase. To determine the level of acarbose needed to inhibit glucoamylase completely, purified glucoamylase equivalent to one DU (the amount that liberates one gram of reducing sugar per hour under the conditions of the assay published in U.S. Pat. No. 3,249,514) is treated with graded amounts of acarbose and the remaining activity measured by incubation with maltose under appropriate conditions, for example, at pH 4.2 and 37° C. with a maltose concentration of 10%. The extent of inhibition of glucoamylase activity is increased with increasing concentrations of acarbose up to 50 μg acarbose per DU enzyme and above, such concentrations causing 100% inhibition. In order to determine the effect of acarbose on TG activity, glucoamylase (one DU) containing TG (40 TG units, vide infra) was treated with different concentrations of acarbose and then incubated with maltose (10%), at pH 4.8, and 37° C. for one hour. The enzyme reaction was then terminated by heating the reaction mixture in a boiling water bath for 15 minutes and transglucosidase activity was determined by measuring, using liquid chromatography, the amount of panose produced during the reaction period. […] In these experiments, panose was routinely measured by a high pressure liquid chromatography procedure which separated this compound from glucose and maltose. Alternative procedures for specific determination of panose can be used equally well.
(§2) It is recognized that the inhibition of glucoamylase or acarbose and the measurement of transglucosidase activity may equally well be conducted under different conditions. In order to work at such alternative conditions, it is necessary to determine the effect of a range of acarbose concentrations under the conditions selected, and in this way to identify a level of acarbose sufficient to give complete inhibition of glucoamylase without inhibiting transglucosidase activity.
^a one unit of glucoamylase was present in the reaction mixture.

transglucosidase = transglucosidase (Aspergillus niger, UniProt P56526); assay: Effect of acarbose on transglucosidase activity (panose produced from maltose, in presence of glucoamylase); type: biochemical; settings: for amount of panose produced: maltose 10%, pH 4.8, 37° C., one hour; for Inhibition (%) transglucosidase: 40 units of transglucosidase
Source text: as §1, §2
^b 40 units of transglucosidase were present in the reaction mixture.

amylolytic enzymes = settings: J. Jap. Soc. Starch Sci., 27, 114-119 (1980); cited from earlier work
[1] = acarbose 1.25 μg/DU glucoamylase
[2] = acarbose 2.5 μg/DU glucoamylase
[3] = acarbose 100 μg/DU glucoamylase
[4] = acarbose 200 μg/DU glucoamylase
[5] = acarbose 300 μg/DU glucoamylase
[6] = acarbose 400 μg/DU glucoamylase
[7] = acarbose 500 μg/DU glucoamylase
[8] = acarbose 600 μg/DU glucoamylase
[9] = acarbose 800 μg/DU glucoamylase
[10] = acarbose 1000 μg/DU glucoamylase
[11] = acarbose 2000 μg/DU glucoamylase

Chain of glucoamylase (P69328 25-640): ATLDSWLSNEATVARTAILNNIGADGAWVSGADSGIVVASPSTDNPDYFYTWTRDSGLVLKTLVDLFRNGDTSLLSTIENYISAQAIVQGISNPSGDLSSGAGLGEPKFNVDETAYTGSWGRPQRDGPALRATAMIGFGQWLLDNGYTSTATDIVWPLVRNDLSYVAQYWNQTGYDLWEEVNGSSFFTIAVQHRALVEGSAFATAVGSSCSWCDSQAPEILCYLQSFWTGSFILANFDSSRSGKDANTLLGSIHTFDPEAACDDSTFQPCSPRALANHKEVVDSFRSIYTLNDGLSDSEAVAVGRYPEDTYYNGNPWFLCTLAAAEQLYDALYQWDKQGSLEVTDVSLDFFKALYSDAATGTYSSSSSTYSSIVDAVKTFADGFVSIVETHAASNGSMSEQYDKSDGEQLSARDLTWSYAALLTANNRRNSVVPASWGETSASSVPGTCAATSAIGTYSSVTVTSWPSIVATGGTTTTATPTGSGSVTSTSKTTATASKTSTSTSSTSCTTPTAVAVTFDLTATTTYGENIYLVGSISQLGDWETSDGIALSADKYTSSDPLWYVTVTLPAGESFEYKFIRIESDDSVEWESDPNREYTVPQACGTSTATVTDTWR
Chain of transglucosidase (P56526 26-266): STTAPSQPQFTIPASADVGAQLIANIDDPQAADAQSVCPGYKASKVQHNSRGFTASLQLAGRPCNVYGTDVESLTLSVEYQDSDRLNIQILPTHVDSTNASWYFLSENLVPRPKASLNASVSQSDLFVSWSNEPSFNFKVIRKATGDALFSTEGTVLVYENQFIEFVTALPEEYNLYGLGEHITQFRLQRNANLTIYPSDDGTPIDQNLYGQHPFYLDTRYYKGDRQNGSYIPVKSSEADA
Chain of transglucosidase (P56526 267-985): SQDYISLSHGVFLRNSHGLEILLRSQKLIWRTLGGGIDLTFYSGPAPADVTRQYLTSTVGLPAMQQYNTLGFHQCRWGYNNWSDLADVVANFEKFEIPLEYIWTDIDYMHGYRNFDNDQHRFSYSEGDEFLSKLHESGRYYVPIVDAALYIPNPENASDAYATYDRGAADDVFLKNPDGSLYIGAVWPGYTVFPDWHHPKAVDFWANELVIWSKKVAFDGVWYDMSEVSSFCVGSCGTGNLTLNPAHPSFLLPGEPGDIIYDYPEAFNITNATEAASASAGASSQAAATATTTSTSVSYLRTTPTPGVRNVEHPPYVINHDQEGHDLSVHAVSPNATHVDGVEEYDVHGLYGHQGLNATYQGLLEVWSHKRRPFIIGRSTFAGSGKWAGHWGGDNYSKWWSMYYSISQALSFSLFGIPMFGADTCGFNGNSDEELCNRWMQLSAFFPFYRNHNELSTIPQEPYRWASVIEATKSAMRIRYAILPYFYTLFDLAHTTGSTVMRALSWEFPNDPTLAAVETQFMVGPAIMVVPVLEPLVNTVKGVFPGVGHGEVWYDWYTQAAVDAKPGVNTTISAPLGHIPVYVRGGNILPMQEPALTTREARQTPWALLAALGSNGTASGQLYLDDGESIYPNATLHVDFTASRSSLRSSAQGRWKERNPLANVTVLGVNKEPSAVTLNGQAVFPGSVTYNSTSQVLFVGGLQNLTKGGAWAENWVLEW

For `C[C@H]1O[C@H](O[C@H]2[C@H](O)[C@@H](O)[C@@H](O[C@H]3[C@H](O)[C@@H](O)C(O)O[C@@H]3CO)O[C@@H]2CO)[C@H](O)[C@@H](O)[C@@H]1N[C@H]1C=C(CO)[C@@H](O)[C@H](O)[C@H]1O` (stereo partly shown) [acarbose], the “inhibition of glucoamylase activity” value (glucoamylase; 50 μg acarbose per DU enzyme and above, maltose 10%, pH 4.2, 37° C.) was 100%, the “Inhibition (%) glucoamylase” value (glucoamylase; [1]) was 23% and the “Inhibition (%) glucoamylase” value (glucoamylase; [2]) was 36%. For the same molecule, the “Inhibition (%) glucoamylase” value (glucoamylase; acarbose 5 μg/DU glucoamylase) was 65%, the “Inhibition (%) glucoamylase” value (glucoamylase; acarbose 10 μg/DU glucoamylase) was 86% and the “Inhibition (%) glucoamylase” value (glucoamylase; acarbose 15 μg/DU glucoamylase) was 91%. For the same molecule, the “Inhibition (%) glucoamylase” value (glucoamylase; acarbose 20 μg/DU glucoamylase) was 95%, the “Inhibition (%) glucoamylase” value (glucoamylase; acarbose 30 μg/DU glucoamylase) was 97% and the “Inhibition (%) glucoamylase” value (glucoamylase; acarbose 40 μg/DU glucoamylase) was 98%. The “Inhibition (%) glucoamylase” value (glucoamylase; acarbose 50 μg/DU glucoamylase) was 100%, the “Inhibition (%) glucoamylase” value (glucoamylase; [3]) was 100% and the “Inhibition (%) glucoamylase” value (glucoamylase; [4]) was 100%. The “Inhibition (%) glucoamylase” value (glucoamylase; [5]) was 100%, the “Inhibition (%) glucoamylase” value (glucoamylase; [6]) was 100% and the “Inhibition (%) glucoamylase” value (glucoamylase; [7]) was 100%. The “Inhibition (%) glucoamylase” value (glucoamylase; [8]) was 100%, the “Inhibition (%) glucoamylase” value (glucoamylase; [9]) was 100% and the “Inhibition (%) glucoamylase” value (glucoamylase; [10]) was 100%. The “Inhibition (%) glucoamylase” value (glucoamylase; [11]) was 100%, the “inhibition of glucoamylase activity” value (glucoamylase; acarbose 50-500 μg/DU) was “completely inhibited” and the “amount of panose produced” value (transglucosidase; above 50 up to 500 μg acarbose per DU of glucoamylase) was “remained constant”. The “Inhibition (%) transglucosidase” value (transglucosidase; [1]) was 0%, the “Inhibition (%) transglucosidase” value (transglucosidase; [2]) was 0% and the “Inhibition (%) transglucosidase” value (transglucosidase; acarbose 5 μg/DU glucoamylase) was 0%. For the same molecule, the “Inhibition (%) transglucosidase” value (transglucosidase; acarbose 10 μg/DU glucoamylase) was 0%, the “Inhibition (%) transglucosidase” value (transglucosidase; acarbose 15 μg/DU glucoamylase) was 0% and the “Inhibition (%) transglucosidase” value (transglucosidase; acarbose 20 μg/DU glucoamylase) was 0%. The “Inhibition (%) transglucosidase” value (transglucosidase; acarbose 30 μg/DU glucoamylase) was 0%, the “Inhibition (%) transglucosidase” value (transglucosidase; acarbose 40 μg/DU glucoamylase) was 0% and the “Inhibition (%) transglucosidase” value (transglucosidase; acarbose 50 μg/DU glucoamylase) was 0%. For the same molecule, the “Inhibition (%) transglucosidase” value (transglucosidase; [3]) was 0%, the “Inhibition (%) transglucosidase” value (transglucosidase; [4]) was 0% and the “Inhibition (%) transglucosidase” value (transglucosidase; [5]) was 0%. For the same molecule, the “Inhibition (%) transglucosidase” value (transglucosidase; [6]) was 0%, the “Inhibition (%) transglucosidase” value (transglucosidase; [7]) was 0% and the “Inhibition (%) transglucosidase” value (transglucosidase; [8]) was 6%. For the same molecule, the “Inhibition (%) transglucosidase” value (transglucosidase; [9]) was 8%, the “Inhibition (%) transglucosidase” value (transglucosidase; [10]) was 12% and the “Inhibition (%) transglucosidase” value (transglucosidase; [11]) was 23%. For the same molecule, the “inhibition of transglucosidase activity” value (transglucosidase; acarbose 50-500 μg/DU) was “without there being any inhibition of transglucosidase activity”, the “amount of panose produced” value (transglucosidase; acarbose exceeding 500 μg/DU glucoamylase) was “steady decrease in the amount of panose produced, indicating inhibition of TG” and the “amount of panose produced” value (transglucosidase; up to 50 μg acarbose per DU of glucoamylase) was “increased with increasing levels of acarbose”. For the same molecule, the “inhibition of amylolytic enzymes” value (amylolytic enzymes) was “inhibitor of amylolytic enzymes”.
